From patent US20210386813A1, “COMPOSITION FOR TREATING OVERWEIGHT AND/OR OBESITY” (NEXIRA, priority 2018, published 2021) come the findings set out here.

Marks after values point to notes of the source that are not given here.

One series deals with adipocytes. As to the kind of experiment: Lipolysis study of mature adipocytes (glycerol and NEFA release). It is filed as cell-based. The following applies: human adipocytes, 2 h at 37° C.; forskolin 1 μM, isoproterenol 0.1 μM; 100 = Base control.
The test system of series [1] is preadipocytes. The series can be described thus: Preadipocyte differentiation and lipid accumulation (adipogenesis) study, BODIPY fluorescence. It is filed as cell-based. The following applies: human preadipocytes; GW9662 0.1 μM; relative to differentiated cells. The method, then:
In practice, the effects of the bioavailable extracts on the lipid accumulation are studied by measuring the accumulation of lipid droplets in the differentiated preadipocytes, that is to say in the adipocytes. The measurement is optical and is performed by fluorescence.
Preadipocytes coming from humans are used for the lipid accumulation study.
The three adipose tissue donors are adult females undergoing a cosmetic or reconstructive surgery intervention.
The preadipocytes are isolated by digestion and centrifugation in accordance with the protocol described for the cytotoxicity study (I) above. […]
The quantification is based on fluorescence intensity measurements on images. The acquisition and the processing of images includes particularly: • the acquisition of microphotographs with a video microscope using the so-called Apotome technology (7 micrographs per well, 3 wells per processing condition); • the quantification of the lipid accumulation by the treatment and the image analysis of the ImageJ software developed by National Institutes of Health (NIH); • the determination of the number of nuclei by means of a shape detection and shape sorting algorithm based on the nucleus size and the circularity of the nucleus; • the connection between the fluorescence detected and the number of nuclei. […]
Fluorescence microphotographs are performed to quantify the lipid accumulation (Bodipy®). […]

The next series has as its system UCP1. As to the kind of experiment: Adipose tissue phenotypic orientation (thermogenesis) study, UCP1 expression by immunofluorescence. It is filed as cell-based. The following applies: human preadipocytes; GW9662; relative to differentiated cells. From the text: The Applicant evaluated the effects of a multitude of bioavailable plant extracts, as well as the effects of the combination of these extracts, on the differentiation of preadipocytes or adipocytes into beige adipocytes. More generally the Applicant evaluated the orientation of a white phenotype towards a beige phenotype.
Preadipocytes coming from humans are used for the cellular differentiation study. The three donors are those of the cytotoxicity study (I) above.
(§1) The preadipocytes are isolated by digestion and centrifugation in accordance with the protocol described for the cytotoxicity study (I) above. The preadipocytes are spread at high density on microtiter plate 96 and cultivated according to the protocol described for the lipid accumulation study (II). The placing in contact with the basolateral medium is performed according to the protocol described for the lipid accumulation study (II).
After the culture, the differentiated cells are fixed with a 4% paraformaldehyde solution then colored with an anti-UCP1 fluorescent antibody available from Sigma-Aldrich under the reference U6382. […]
The quantification is based on fluorescence intensity measurements on images. […]
Fluorescence microphotographs are performed to quantify the UCP1 expression. […]

Series [2] has as its system differentiated preadipocytes. The series can be described thus: Adipose tissue energy metabolism study, ATP production (Mitochondrial ToxGlo). It is filed as cell-based, human. The following applies: differentiated cells; rotenone 400 nM, 2 hours. As to the method:
In order to study the energy metabolism, the ATP production is measured in the differentiated preadipocytes. This provides information on the presence of mitochondria and their activity. Here, the Mitochondrial ToxGlo® test available from Promega under the reference G8000 is used.
The test includes placing preadipocytes in contact with an ATP detection reagent. […] The ATP detection reagent comprises luciferin, ATPase inhibitors and Ultra-Glo® thermostable luciferase. The values are normalized with a DAPI quantification. The Normalization is carried out exclusively in relation to the basolateral medium.
Preadipocytes coming from humans are used for the energy metabolism study. The three donors are those of the cytotoxicity study (I) above.
as §1
The quantification of the ATP synthesis is performed on differentiated cells.
The basolateral medium (BM) comprising the bioavailable extracts of the Caco-2 cell system is harvested for the test. […]

Series [3] relates to preadipocytes. The series can be described thus: Cytotoxicity study of bioavailable plant extracts on human preadipocytes (LDH release, CytoTox 96). It is filed as cell-based. The following applies: relative to FBS 1% base control, 0.2% triton. As to the method: The analysis of the damage of cell membranes is performed with the CytoTox 96® Non-Radioactive Cytotoxicity Assay kit available from Promega under the reference G1780. This test is based on the principle that cells having a damaged cell membrane release […] (LDH) into the culture medium. LDH is measured by supplying in the medium lactate, oxidized nicotinamide adenine dinucleotide (NAD+) and iodonitrotetrazolium purple as substrates in presence of diaphorase. Red formazan is then created. The red formazan is proportional to the LDH released by the cells. The Applicant evaluated the cytotoxic effects of a multitude of bioavailable plant extracts, as well as the cytotoxic effects of the combination of these extracts, on preadipocytes coming from various donors. The cytotoxic effects of bioavailable plant extracts and their combinations was evaluated on preadipocytes. […] An extract is considered as cytotoxic if the LDH level measured is greater than or equal to 20% in relation to the LDH level measured with the control extract. […] The results are expressed in percentages in relation to the control extract; except for the LDH test, for which the results are expressed as percentages of the cell lysis control (average+/− SEM), which represents the positive control for the cytotoxicity (the control is fixed at 100%). […]

Series [4] deals with preadipocytes. The series can be described thus: Cellular viability / mitochondrial activity (MTS formazan, Cell Titer 96 AQueous One). Type of series: cell-based. The following applies: human preadipocytes; relative to FBS 1% base control; 0.2% triton. As to the method: The cytotoxic effects of bioavailable plant extracts and their combinations was evaluated on preadipocytes. Two technical approaches were implemented: • the evaluation of the cellular viability by the measurement of the production of formazan by active (therefore living) cells; and • the analysis of the damage of cell membranes by the measurement of lactate dehydrogenase (LDH) in the cell culture medium.
The evaluation of the cellular viability is performed with the Cell Titer 96® AQueous One Solution Cell Proliferation Assay test kit available from Promega under the reference G3580.
In this test, the compound MTS-tetrazolium (3-(4,5-dimethylthiazol-2-yl)-5-(3-carboxymethoxyphenyl)-2-(4-sulfophenyl)-2H-tetrazolium) is transformed by active (living) cells in a culture medium in colored formazan. The transformation of MTS-tetrazolium is performed by the mitochondria in the cells. Formazan is soluble in the culture medium. The quantity of formazan is directly proportional to the number of living cells and may be measured by spectrophotometry (absorbance).
In practice, the cellular viability test is therefore based on the mitochondrial activity of the cells.
As a result, the viability study may provide precious information for the energy metabolism study (IV). […]
The cellular viability is measured directly in the wells of the microtiter plate. […]

In the case of `C=C[C@@]1(C)CC(=O)[C@]2(O)[C@@]3(C)[C@@H](O)CCC(C)(C)[C@@H]3[C@H](O)[C@H](OC(C)=O)[C@@]2(C)O1` [Forskolin], in the series with adipocytes, the “Glycerol % Differentiated” value is listed as 151.62** % Differentiated and the “NEFA % Differentiated” value is listed as 179.70** % Differentiated.
As for `O=C(Nc1ccccc1)c1cc([N+](=O)[O-])ccc1Cl` [GW9662], the “Lipid accumulation % Differentiated” value with preadipocytes [1] is recorded as 30.59* % Differentiated. Further, the “UCP1 expression (total cell normalization) % Differentiated” value in the series with UCP1 stood at 83.38 % Differentiated.
As to `CC(C)NCC(O)c1ccc(O)c(O)c1` (stereo not drawn) [Isoproterenol], in the series on adipocytes, the “Glycerol % Differentiated” value is on record as 213.97** % Differentiated and the “NEFA % Differentiated” value is reported as 241.48** % Differentiated.
As for `C=C(C)[C@H]1Cc2c(ccc3c2O[C@@H]2COc4cc(OC)c(OC)cc4[C@@H]2C3=O)O1` [Rotenone, rotenone], the “ATP production % Differentiated” value in series [2] is 27.95** % Differentiated.
Turning to triton [Lysis control], the “Cytotoxicity % Base control (release of LDH)” value in the series with preadipocytes [3] is 1,252.05** % Base control. In the series with preadipocytes [4], the “Mitochondrial Activity (viability) % Base control” value is 23.78** % Base control.
